Drawing on patent US20250145599A1, “CERTAIN CHEMICAL ENTITIES, COMPOSITIONS, AND METHODS” (Retune Pharma Inc., priority 2022, published 2025), this text covers IC50 for 24 compounds.

Where only a bound is given, the exact number is not on record here.

Chain of IGF-1R (P08069 31-1367): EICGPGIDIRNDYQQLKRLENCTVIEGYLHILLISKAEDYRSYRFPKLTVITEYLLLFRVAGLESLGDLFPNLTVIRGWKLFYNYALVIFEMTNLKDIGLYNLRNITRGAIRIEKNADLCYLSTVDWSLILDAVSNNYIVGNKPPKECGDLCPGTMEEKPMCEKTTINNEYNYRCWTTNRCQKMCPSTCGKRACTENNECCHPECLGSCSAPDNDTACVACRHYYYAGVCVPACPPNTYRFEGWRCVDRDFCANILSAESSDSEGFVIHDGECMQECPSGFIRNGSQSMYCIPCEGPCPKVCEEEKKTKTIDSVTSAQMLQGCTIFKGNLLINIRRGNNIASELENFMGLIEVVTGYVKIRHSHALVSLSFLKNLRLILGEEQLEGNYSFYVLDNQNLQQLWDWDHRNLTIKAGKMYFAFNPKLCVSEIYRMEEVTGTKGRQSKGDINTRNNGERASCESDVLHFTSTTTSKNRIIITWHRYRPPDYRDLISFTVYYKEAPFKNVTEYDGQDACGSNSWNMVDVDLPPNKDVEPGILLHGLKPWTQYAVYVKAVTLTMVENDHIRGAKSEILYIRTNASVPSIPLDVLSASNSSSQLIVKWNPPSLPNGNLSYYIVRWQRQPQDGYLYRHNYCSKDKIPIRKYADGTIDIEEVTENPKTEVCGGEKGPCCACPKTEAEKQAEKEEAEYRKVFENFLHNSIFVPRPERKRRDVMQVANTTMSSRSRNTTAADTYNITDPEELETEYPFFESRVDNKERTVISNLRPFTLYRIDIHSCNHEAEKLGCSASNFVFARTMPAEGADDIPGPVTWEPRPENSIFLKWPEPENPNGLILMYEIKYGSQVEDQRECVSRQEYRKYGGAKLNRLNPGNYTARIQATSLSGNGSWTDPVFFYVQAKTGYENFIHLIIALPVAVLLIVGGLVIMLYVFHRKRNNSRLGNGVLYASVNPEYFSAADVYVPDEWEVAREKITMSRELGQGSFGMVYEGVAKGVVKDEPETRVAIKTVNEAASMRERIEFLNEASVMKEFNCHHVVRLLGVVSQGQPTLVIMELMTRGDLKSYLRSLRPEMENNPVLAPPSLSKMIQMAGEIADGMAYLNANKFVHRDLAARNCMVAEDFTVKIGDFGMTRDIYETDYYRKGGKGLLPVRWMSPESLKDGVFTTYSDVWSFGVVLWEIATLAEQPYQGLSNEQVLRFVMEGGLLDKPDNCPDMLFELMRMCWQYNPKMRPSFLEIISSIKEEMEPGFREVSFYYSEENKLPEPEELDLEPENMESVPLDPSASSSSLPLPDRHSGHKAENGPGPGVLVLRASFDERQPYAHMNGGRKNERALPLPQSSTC

For this experiment, the target named is IGF-1R (Homo sapiens, UniProt P08069). Nature of the experiment: IGF-1R biochemical assay (ADP-Glo). To be noted: read-out: IGF1R IC50. On the procedure:
The inhibitory activity against IGF-1R was measured using ADP-Glo assay. The percent (%) inhibition at each concentration of compound is calculated based on and relative to the luminescence signal in the Max and Min control wells contained within each assay plate. The Max control wells contain enzyme and substrate as 0% inhibition, and the Min control wells only contain substrate without enzyme as 100% inhibition. The concentrations and % inhibition values for tested compounds are plotted and the concentration of compound required for 50% inhibition (IC50) is determined with a four-parameter logistic dose response equation.
Table 3 provides IC50 data of representative compounds against IGF-1R using ADP-Glo assay. The IC50 data are designated within the following ranges: A: ≤0.10 μM, B: >0.10 μM to ≤1 μM, C: >1 μM to ≤20 μM
(ADP-Glo first removes unused ATP, then detects ADP through luciferase.)
As usually defined, the IC50 is the midpoint of a concentration-inhibition curve. Consider `NC(=O)c1c(-c2ccc3ccc(-c4ccccc4)nc3c2)nn(C2CC(=O)C2)c1N` [Example C001, 5-amino-1-(3-oxocyclobutyl)-3-(2-phenylquinolin-7-yl)-1H-pyrazole-4-carboxamide], for which the IC50 lay within 1 to 20 µM.

As for `NC(=O)c1c(-c2ccc3ccc(-c4ccccc4)nc3c2)nn(C2CCNCC2)c1N` [Example C002, 5-amino-3-(2-phenylquinolin-7-yl)-1-(piperidin-4-yl)-1H-pyrazole-4-carboxamide], the IC50 was in the range of 0.1 to 1 µM.

In the case of `NC(=O)c1c(-c2ccc3ccc(-c4ccccc4)nc3c2)nn(C2CCN(C(N)=O)CC2)c1N` [Example C003, 4-(5-amino-4-carbamoyl-3-(2-phenylquinolin-7-yl)-1H-pyrazol-1-yl)piperidine-1-carboxamide], the IC50 was 1 to 20 µM.

Turning to `COC(=O)N1CCC(n2nc(-c3ccc4ccc(-c5ccccc5)nc4c3)c(C(N)=O)c2N)CC1` [Example C004, methyl 4-(5-amino-4-carbamoyl-3-(2-phenylquinolin-7-yl)-1H-pyrazol-1-yl)piperidine-1-carboxylate], the IC50 fell in the range of 1 to 20 µM.

For `C[C@]1(O)C[C@H](n2nc(-c3ccc4ccc(-c5ccccc5)nc4c3)c(C(N)=O)c2N)C1` [Example C006, 5-amino-1-((1r,3r)-3-hydroxy-3-methylcyclobutyl)-3-(2-phenylquinolin-7-yl)-1H-pyrazole-4-carboxamide], the IC50 is 0.1 to 1 µM.

Regarding `CN1CCC(n2nc(-c3ccc4ccc(-c5ccccc5)nc4c3)c(C(N)=O)c2N)CC1` [Example C007, 5-amino-1-(1-methylpiperidin-4-yl)-3-(2-phenylquinolin-7-yl)-1H-pyrazole-4-carboxamide], the IC50 lay in the range of 1 to 20 µM.

Take `NC(=O)c1c(-c2ccc3ccc(-c4ccccc4)nc3c2)nn(C2CCN(CCO)CC2)c1N` [Example C008, 5-amino-1-(1-(2-hydroxyethyl)piperidin-4-yl)-3-(2-phenylquinolin-7-yl)-1H-pyrazole-4-carboxamide]: the IC50 lay within 0.1 to 1 µM.

Turning to `NC(=O)c1c(-c2ccc3ccc(-c4ccccc4)nc3c2)nn([C@H]2C[C@@H](O)C2)c1N` [Example C009, 5-amino-1-((1s,3s)-3-hydroxycyclobutyl)-3-(2-phenylquinolin-7-yl)-1H-pyrazole-4-carboxamide], the IC50 fell in the range of 1 to 20 µM.

Regarding `CC(=O)N1CCC(n2nc(-c3ccc4ccc(-c5ccccc5)nc4c3)c(C(N)=O)c2N)CC1` [Example C010, 1-(1-acetylpiperidin-4-yl)-5-amino-3-(2-phenylquinolin-7-yl)-1H-pyrazole-4-carboxamide], the IC50 lay within 1 to 20 µM.

For `CCOC(=O)[C@H]1C[C@@H](n2nc(-c3ccc4ccc(-c5ccccc5)nc4c3)c(C(N)=O)c2N)C1` [Example C011, ethyl (1s,3s)-3-(5-amino-4-carbamoyl-3-(2-phenylquinolin-7-yl)-1H-pyrazol-1-yl)cyclobutane-1-carboxylate], the IC50 was in the range of 0.1 to 1 µM.

As to `NC(=O)c1c(-c2ccc3ccc(-c4ccccc4)nc3c2)nn([C@H]2C[C@H](CN3CCC3)C2)c1N` [Example C014, 5-amino-1-((1r,3r)-3-(azetidin-1-ylmethyl)cyclobutyl)-3-(2-phenylquinolin-7-yl)-1H-pyrazole-4-carboxamide], the IC50 is at most 0.1 µM.

With `NC(=O)c1c(-c2ccc3ccc(-c4ccccc4)nc3c2)nn([C@H]2C[C@@H](CN3CCNCC3)C2)c1N` [Example C015, 5-amino-3-(2-phenylquinolin-7-yl)-1-((1s,3s)-3-(piperazin-1-ylmethyl)cyclobutyl)-1H-pyrazole-4-carboxamide], the IC50 was at most 0.1 µM.

Consider `NC(=O)c1c(-c2ccc3ccc(-c4ccccc4)nc3c2)nn([C@H]2C[C@H](CN3CCNCC3)C2)c1N` [Example C016, 5-amino-3-(2-phenylquinolin-7-yl)-1-((1r,3r)-3-(piperazin-1-ylmethyl)cyclobutyl)-1H-pyrazole-4-carboxamide], for which the IC50 is at most 0.1 µM.

As for `NC(=O)c1c(-c2ccc3ccc(-c4ccccc4)nc3c2)nn([C@H]2C[C@@H](C(=O)O)C2)c1N` [Example C017, (1s,3s)-3-(5-amino-4-carbamoyl-3-(2-phenylquinolin-7-yl)-1H-pyrazol-1-yl)cyclobutane-1-carboxylic acid], the IC50 fell in the range of 1 to 20 µM.

On to `CN1CCN(C[C@H]2C[C@@H](n3nc(-c4ccc5ccc(-c6ccccc6)nc5c4)c(C(N)=O)c3N)C2)CC1` [Example C019, 5-amino-1-((1s,3s)-3-((4-methylpiperazin-1-yl)methyl)cyclobutyl)-3-(2-phenylquinolin-7-yl)-1H-pyrazole-4-carboxamide], for which the IC50 was 0.1 to 1 µM.

With `CCOC(=O)[C@]1(C)C[C@@H](n2nc(-c3ccc4ccc(-c5ccccc5)nc4c3)c(C(N)=O)c2N)C1` [Example C020, ethyl (1r,3r)-3-(5-amino-4-carbamoyl-3-(2-phenylquinolin-7-yl)-1H-pyrazol-1-yl)-1-methylcyclobutane-1-carboxylate], the IC50 is 0.1 to 1 µM.

For `CN1CCN(C[C@H]2C[C@H](n3nc(-c4ccc5ccc(-c6ccccc6)nc5c4)c(C(N)=O)c3N)C2)CC1` [Example C021, 5-amino-1-((1r,3r)-3-((4-methylpiperazin-1-yl)methyl)cyclobutyl)-3-(2-phenylquinolin-7-yl)-1H-pyrazole-4-carboxamide], the IC50 is at most 0.1 µM.

Regarding `C[C@]1(C(=O)O)C[C@H](n2nc(-c3ccc4ccc(-c5ccccc5)nc4c3)c(C(N)=O)c2N)C1` [Example C022, (1r,3r)-3-(5-amino-4-carbamoyl-3-(2-phenylquinolin-7-yl)-1H-pyrazol-1-yl)-1-methylcyclobutane-1-carboxylic acid], the IC50 lay within 1 to 20 µM.

In the case of `NC(=O)c1c(-c2ccc3ccc(-c4ccccc4)nc3c2)nn(C2CC(N3CCOCC3)C2)c1N` (stereo not drawn) [Example C023, 5-amino-1-(3-morpholinocyclobutyl)-3-(2-phenylquinolin-7-yl)-1H-pyrazole-4-carboxamide], the IC50 is at most 0.1 µM.

`CC(C)n1nc(-c2ccc3ccc(-c4ccccc4)nc3c2)c(C(N)=O)c1N` [Example C024, 5-amino-1-isopropyl-3-(2-phenylquinolin-7-yl)-1H-pyrazole-4-carboxamide]: the IC50 lay in the range of 0.1 to 1 µM.

Regarding `NC(=O)c1c(-c2ccc3ccc(-c4ccccc4)nc3c2)nn(C2CC(N3CCNCC3)C2)c1N` (stereo not drawn) [Example C025, 5-amino-3-(2-phenylquinolin-7-yl)-1-(3-(piperazin-1-yl)cyclobutyl)-1H-pyrazole-4-carboxamide], the IC50 was at most 0.1 µM.

On to `CN1CCN(C2CC(n3nc(-c4ccc5ccc(-c6ccccc6)nc5c4)c(C(N)=O)c3N)C2)CC1` (stereo not drawn) [Example C026, 5-amino-1-(3-(4-methylpiperazin-1-yl)cyclobutyl)-3-(2-phenylquinolin-7-yl)-1H-pyrazole-4-carboxamide], for which the IC50 is at most 0.1 µM.

As to `NC(=O)c1c(-c2ccc3ccc(-c4ccccc4)nc3c2)nn(C2CC(N3CCC3)C2)c1N` (stereo not drawn) [Example C027, 5-amino-1-(3-(azetidin-1-yl)cyclobutyl)-3-(2-phenylquinolin-7-yl)-1H-pyrazole-4-carboxamide], the IC50 is 0.1 to 1 µM.

`C[C@]1(O)C[C@@H](n2nc(-c3ccc4ccc(-c5ccccc5)nc4c3F)c(C(N)=O)c2N)C1` [Example C028, 5-amino-3-(8-fluoro-2-phenylquinolin-7-yl)-1-((1s,3s)-3-hydroxy-3-methylcyclobutyl)-1H-pyrazole-4-carboxamide]: the IC50 is at most 0.1 µM.
